Results taken from US10758536B2, “Method for treating shingles with N-methanocarbathymidine (N-MCT)” (priority 2015, dated 2020).
In brackets after ≈: the same amount, converted by molar mass. Entries after “also recorded” stand apart in the source; their conditions may differ.

Tests used:
VZV [1] = experiment: Skin organ culture assay, drug in medium; type: cell-based, varicella-zoster virus
Method: (§1) Human foreskin fibroblasts (HFFs) (CCD-1137Sk; American Type Culture Collection), used prior to passage 20 were grown in Eagle minimum essential medium with Earle's salts and L-glutamine (HyClone Laboratories), supplemented with 10% heat-inactivated fetal bovine serum (Benchmark FBS; Gemini Bio Products), penicillin-streptomycin (5000 IU/mL), amphotericin B (250 µg/mL), and nonessential amino acids (all Mediatech). VZV-BAC-Luc (Zhang et al., 2007), derived from the Parental Oka (POka, Accession number: AB097933) strain was propagated in HFFs. To prepare the virus for inoculation, VZV-infected HFFs were trypsinized, then washed and resuspended in TCM, and used immediately for direct injection. Each tissue was injected twice with 30 μL of the cell suspension using a 1 cc syringe fitted with a 27-gauge needle attached to a volumetric stepper (Tridak). The needle was lightly dragged across the tissue approximately 5 times to scarify the surface to increase infection. Tissues were incubated at 37° C. for 3 h to allow the virus to adhere, and then placed individually on NetWells that had contact with 1.0 mL of tissue culture medium. The cell-associated VZV inoculum was titered on MeWo cells (Taylor and Moffat, 2005) and was typically 1.5×10^6 pfu/mL, which is approximately 9×10^4 pfu/tissue.
In skin organ culture, higher concentrations of N-MCT were needed to reduce VZV spread; virus yield was reduced ˜100-fold when [N-MCT] was greater than 10 μg/mL.

VZV [2] = experiment: Delayed N-MCT treatment in SCID-Hu mice; type: in vivo, varicella-zoster virus; details: 50 mg/kg p.o. BID; treatment delayed 3 or 7 days after VZV infection
Method: Statistical analysis: Data were analyzed using Student's t test or one-way ANOVA and Dunnett's Multiple Comparison post hoc tests. Calculations were made using GraphPad Prism 5.02 for Windows (GraphPad Software, San Diego, Calif., www.graphpad.com). A p<0.05 was considered statistically significant.

VZV [3] = experiment: EC50 determination in HFFs, VZV-BAC-Luc bioluminescence; type: cell-based, varicella-zoster virus
Method: as §1, with “The needle was lightly dragged across the tissue approximately 5 times to scarify the surface to increase infection. Tissues were incubated at 37° C. for 3 h to allow the virus to adhere, and then placed individually on NetWells that had contact with 1.0 mL of tissue culture medium. The cell-associated VZV inoculum was titered on MeWo cells (Taylor and Moffat, 2005) and was typically 1.5×10^6 pfu/mL, which is approximately 9×10^4 pfu/tissue.” left out
The first question we addressed was whether N-MCT was effective against VZV in cultured cells. A standard EC50 evaluation was performed using the VZV-BAC-Luc strain and virus yield was measured by bioluminescence. […]
Cells were treated for 48 hpi (hour post infection) and the medium containing the drug was changed after 24 h. VZV spread was measured by bioluminescence imaging at 48 hpi and expressed as Total Flux (photons/sec/cm^2/steradian). […]

VZV [4] = experiment: Skin organ culture topical Assay 3: vehicle comparison; type: cell-based, varicella-zoster virus
Method: Place 36 mL deionized sterile water into small beaker with stir bar. Slowly waft 900 mg of carbopol (980 NF, Lot # CCONLCC013, Lubrizol Corp) into water, avoiding clumps. Add equal volume N-MCT in 20% hydroxypropyl-β-cyclodextrin (Sigma) at 2× to reach the desired concentration. Add 2 drops NaOH (18% solution) to attain a pH near 5.0. Store at 4° C. The 0.5% cidofovir gel was made in a similar manner except that cidofovir was dissolved in water. The DMSO vehicle was prepared by adding a 2% DMSO solution in water to the carbopol suspension at a 1:1 ratio. Hydroxypropyl-β-cyclodextrin (HPBCD) was prepared by mixing 5.0 g with 20 mL sterile water. Stock solution of N-MCT was prepared by dissolving 90 mg N-MCT in 9 mL 20% HPBCD and sonicating for 1 min.
This assay compared two vehicles, 1% DMSO and 10% hydroxypropyl-β-cyclodextrin (HPBCD) in carbopol gel, and 0.5% N-MCT in either vehicle. Refer to Assay #3 in Table 4 above. Each group was treated on Days 1-4 and scanned on Day 5, which is the typical assay protocol. The skin specimens were then cultured without drug or vehicle for another 6 days (scans on Day 7 and Day 11) to observe virus rebound. VZV yield was reduced in both Vehicle groups during the treatment phase, and then rebounded. This was likely due to the effects of the slightly acidic carbopol gel. There was little difference between the two vehicles. […] Importantly, there was no rebound in the groups treated with N-MCT. In fact, VZV yield continued to decrease after the treatment stopped.

Cc1cn([C@]23C[C@H](O)[C@@H](CO)[C@@H]2C3)c(=O)[nH]c1=O [N-MCT, N-methanocarbathymidine]
VZV growth in skin organ culture (VZV [1]; FIG. 2): prevents VZV growth | virus yield reduction (VZV [1]; [N-MCT] greater than 10 μg/mL, skin organ culture): ~100 fold | concentrations at which N-MCT prevents VZV spread in human skin explants (VZV [1]; human skin explants, drug in medium): > 10 µg/mL | effectiveness in vivo when treatment is delayed (VZV [2]): effective; also recorded: can be delayed up to one week after infection | EC50 (VZV [3]; Human alphaherpesvirus 3, Fibroblast, human foreskin fibroblasts, VZV-BAC-Luc, bioluminescence at 48 hpi): 0.06 µg/mL (≈ 0.238 µM) | EC50 (VZV [3]; Human alphaherpesvirus 3, cultured cells): 0.06 µg/mL (≈ 0.238 µM) | VZV yield (VZV [4]; 0.5% N-MCT in 1% DMSO or 10% HPBCD carbopol gel, Days 1-4): substantial decrease | cyclodextrin preparation compared with DMSO prep (VZV [4]; 0.5% N-MCT in 10% HPBCD vs 1% DMSO carbopol): slightly more effective | VZV rebound after treatment stopped (VZV [4]; scans on Day 7 and Day 11, no drug after Day 5): no rebound
